Data from patent US11185539B2 (priority 2017, dated 2021).

Assays:
kidney and liver = assay: Kidney and liver histology (HE, PAS), angiotensin II model, fourteen days; assay type: in vivo, mice; details: Bufalin 0.5, Lycorine 4.5 mg/kg; fourteen days after the operation
Experimental: Again, HF was induced in mice (Example 3) and Bufalin (0.5 mg/kg) as well as Lycorine (4.5 mg/kg) were injected as indicated in Example 3. Fourteen days after the operation, kidneys and livers were subjected to histological assessment via Hematoxylin and Eosin (HE) and Periodic acid-Schiff (PAS) stain (n=2-4 per group) (see FIGS. 28A and B).

[1] = system: C57BL/6N mice with angiotensin II-induced diastolic heart failure; assay: 2-dimensional speckle-tracking strain echocardiography, therapeutic model; assay type: in vivo; details: therapeutic: Bufalin 0.5 mg/kg; week 8
Experimental: (§1) Diastolic heart failure (HF) was induced in C57BL/6N mice via implantation of angiotensin II filled minipumps (see Example 3). In difference to Example 3, C57BL/6N mice were infused with 3 mg/kg/day angiotensin II by subcutaneously implanted minipumps for eight weeks.
(§2) Next, Bufalin or Lycorine (dissolved in DMSO) or the solvent DMSO alone (as control) were injected intraperitoneally (i.p) every other day until the endpoint, starting two weeks after start of angiotensin II-infusion (see FIG. 11).
(§3) Diastolic HF was induced in C57BL/6 mice and Bufalin were injected as indicated in Example 5. Eight weeks after the operation, cardiac function of the mice was assessed echocardiographically (n=3-6 per group) by treating the mice with said compounds (Bufalin: 0.5 mg/kg)
Additionally, myocardial deformation was assessed using strain imaging such as 2-dimensional speckle-tracking strain echocardiography. Global longitudinal strain (GLS), a measure for the deformation of the myocardium, which decreases when diastolic dysfunction is present, is depicted in FIG. 15.

[2] = system: C57BL/6N mice with angiotensin II-induced diastolic heart failure; assay: Tissue Doppler Imaging, therapeutic model; assay type: in vivo; details: therapeutic: Bufalin 0.5 mg/kg; week 8; vs AngII solvent control
Experimental: as §1, §2, §3
Echocardiographic measurements were performed using Tissue Doppler Imaging (TDI), which refers to a medical ultrasound technology mainly used in Echocardiography that measures the velocity of the heart muscle or myocardium through the phases of one or more heartbeats by the Doppler effect (frequency shift) of the reflected ultrasound (see FIG. 14).

[3] = system: C57BL/6N mice with angiotensin II-induced diastolic heart failure; assay: Echocardiography in therapeutic murine model (angiotensin II for eight weeks); assay type: in vivo; details: therapeutic: Bufalin 0.5 mg/kg i.p. every other day from week 2; week 8
Experimental: as §1, §2
Diastolic HF was induced in C57BL/6 mice and Bufalin or Lycorine were injected as indicated in Example 5. Eight weeks after the operation, cardiac function of the mice was assessed echocardiographically (n=5-12 per group) by treating the mice with said compounds (Bufalin: 0.5 mg/kg, Lycorine 4.5 mg/kg).
A decrease of the Myocardial Performance Index (MPI) (see FIG. 12B) as well as a reduction of the isovolumetric relaxation time (IVRT) (see FIG. 12C) and an increase in E to A peak ratio (E/A) (the ratio of the early (E) to late (A) ventricular filling velocities as a marker of the function of the left ventricle of the heart) (see FIG. 12D) indicate improvement of both global (MPI) and diastolic (IVRT and E/A) function of the heart, in particular for Bufalin.

miRNA expression of HCFs = assay: High-throughput miRNA sequencing in HCFs; assay type: cell-based, human; details: 1 μM, 24 h, vs DMSO
Experimental: HCFs were treated with 1 μM Bufalin for 24 h as indicated, total RNA was isolated and subjected to high-throughput miRNA sequencing profiling via deep sequencing, DMSO refers as a control. To perform a high-throughput miRNA sequencing the Illumine® TruSeq® Small RNA technology is used to prepare various RNA species which is known to the person skilled in the art. In view of said technology, advantages of the natural structure common to most known microRNA molecules are taken. Most mature miRNAs have a 5′-phosphate and a 3′-hydroxyl group as a result of the cellular pathway used to create them. Because of this, the Illumina adapters which are used are directly and specifically ligated to miRNAs. Thus, libraries for subsequent cluster generation are prepared, using total RNA as input. Further, adapter ligation, reverse transcription, PCR amplification, and pooled gel purification to generate a library product is applied as it is known to the skilled person in the art. […] Data represent pooled triplicates from 3 independent experiments. Representative experiment shown; the same experiment was performed with all the anti-fibrotic natural substances identified (see FIG. 16).

For `C[C@]12CC[C@H](O)C[C@H]1CC[C@@H]1[C@@H]2CC[C@]2(C)[C@@H](c3ccc(=O)oc3)CC[C@]12O` [Bufalin], the “kidney and liver morphology (HE, PAS)” value (kidney and liver) was “does not induce necrosis, inflammation or any morphological changes”, the “ejection fraction (EF)” value [1] was “remained comparable in all tested groups” and the “global longitudinal strain (GLS)” value [1] was “significant reversal of the downshift”. The “velocity of tissue motion in diastole (E′)” value [2] was “recovers the velocity of tissue motion in diastole”, the “E to A peak ratio” value [3] was “increase” and the “Myocardial Performance Index (MPI)” value [3] was “decrease”. The “isovolumetric relaxation time (IVRT)” value [3] was “reduction”, the “number of miRNAs downregulated in HCFs” value (miRNA expression of HCFs) was 33 and the “number of miRNAs upregulated in HCFs” value (miRNA expression of HCFs) was 14.

For `O[C@H]1[C@H]2c3cc4c(cc3CN3CCC(=C[C@@H]1O)[C@H]23)OCO4` [Lycorine], the “kidney and liver morphology (HE, PAS)” value (kidney and liver) was “does not induce necrosis, inflammation or any morphological changes”.
